Reference: the NIST ThermoML archive (doi:10.1021/acs.jced.6b00888)
± gives the expanded uncertainty stated by the source.

Settings: 101.3 kPa, Liquid, Vibrating tube method

CN(C)CCO [2-(N,N-dimethylamino)ethanol]
Settings | mass density [kg/m3]
293.15 K | 888.2 ± 5.2
298.15 K | 884 ± 5.2
303.15 K | 879.8 ± 5.2
308.15 K | 875.5 ± 5.2
313.15 K | 871.2 ± 5.2
318.15 K | 866.8 ± 5.2
323.15 K | 862.4 ± 5.2
328.15 K | 858 ± 5.2
333.15 K | 853.5 ± 5.2
338.15 K | 849 ± 5.2
343.15 K | 844.4 ± 5.2
